The values below come from patent publication US20150352108A1, “AMINO-PYRIMIDINE COMPOUNDS AS INHIBITORS OF TBK1 AND/OR IKK EPSILON” (Alzheimer's Institute of America, priority 2009, published 2015).

Read-outs that look alike come from different tables or passages of the source.

One assay deals with T1, IKKε (Homo sapiens, UniProt Q14164).
T1 construct: His-tag; made in house; host or cells: Sf9 insect cells
T1 sequence (Q14164 1-716): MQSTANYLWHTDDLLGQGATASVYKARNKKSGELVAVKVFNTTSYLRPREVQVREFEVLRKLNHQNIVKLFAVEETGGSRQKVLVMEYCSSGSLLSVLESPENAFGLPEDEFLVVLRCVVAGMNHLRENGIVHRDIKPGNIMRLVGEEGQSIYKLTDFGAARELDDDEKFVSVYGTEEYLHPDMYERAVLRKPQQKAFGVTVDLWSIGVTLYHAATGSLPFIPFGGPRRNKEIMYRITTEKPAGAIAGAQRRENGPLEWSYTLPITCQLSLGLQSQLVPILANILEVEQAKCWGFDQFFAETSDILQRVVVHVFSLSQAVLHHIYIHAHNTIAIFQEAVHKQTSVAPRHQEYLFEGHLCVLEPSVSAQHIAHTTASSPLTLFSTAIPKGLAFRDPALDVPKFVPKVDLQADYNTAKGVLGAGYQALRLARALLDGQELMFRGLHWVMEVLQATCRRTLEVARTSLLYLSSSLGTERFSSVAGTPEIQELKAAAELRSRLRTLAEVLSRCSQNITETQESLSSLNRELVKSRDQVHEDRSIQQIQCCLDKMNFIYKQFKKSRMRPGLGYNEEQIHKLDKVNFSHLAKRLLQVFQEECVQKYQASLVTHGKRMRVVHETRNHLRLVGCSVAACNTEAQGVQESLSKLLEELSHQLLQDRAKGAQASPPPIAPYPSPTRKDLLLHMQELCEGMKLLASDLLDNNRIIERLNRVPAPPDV
Briefly: In-vitro IKKε kinase assay ([γ33]ATP filter-plate). Format: biochemical. In short, it runs like this:
(§1)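 His-tagged Sf9-expressed kinases at 0.1 or 0.02 μg/ml (TBK1) and 0.1 or 0.015 μg/ml (IKKε) for normal and sensitized formats, with myelin basic protein or casein substrate. ATP was at 2×Km (60 μM TBK1, 32 μM IKKε) plus 0.3 μCi [γ33]ATP. Reactions ran 30-45 min, were captured on P-81 filters, and counts were normalized to DMSO.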

In another assay the target is T2, TBK1 (Homo sapiens, UniProt Q9UHD2).
T2 construct: His-tag; made in house; host or cells: Sf9 insect cells
T2 sequence (Q9UHD2 1-729): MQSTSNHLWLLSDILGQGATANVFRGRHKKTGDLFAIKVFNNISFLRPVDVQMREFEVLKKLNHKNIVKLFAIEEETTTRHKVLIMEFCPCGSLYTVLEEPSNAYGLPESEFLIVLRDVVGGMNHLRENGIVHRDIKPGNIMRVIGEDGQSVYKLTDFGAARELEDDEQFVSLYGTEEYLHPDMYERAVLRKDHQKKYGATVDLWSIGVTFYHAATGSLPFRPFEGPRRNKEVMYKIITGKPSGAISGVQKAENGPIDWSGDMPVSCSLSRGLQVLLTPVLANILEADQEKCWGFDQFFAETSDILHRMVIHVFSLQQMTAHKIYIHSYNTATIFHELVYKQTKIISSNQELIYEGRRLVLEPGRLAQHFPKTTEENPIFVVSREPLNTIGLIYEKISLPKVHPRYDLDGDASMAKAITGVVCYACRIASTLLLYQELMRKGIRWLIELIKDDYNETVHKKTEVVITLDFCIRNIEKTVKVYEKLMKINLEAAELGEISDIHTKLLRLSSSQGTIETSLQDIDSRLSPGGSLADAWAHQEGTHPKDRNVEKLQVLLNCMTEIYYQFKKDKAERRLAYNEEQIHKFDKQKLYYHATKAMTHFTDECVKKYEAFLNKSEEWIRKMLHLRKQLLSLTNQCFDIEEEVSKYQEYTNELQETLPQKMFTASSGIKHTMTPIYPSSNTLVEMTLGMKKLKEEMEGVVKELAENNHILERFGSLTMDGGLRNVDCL
Briefly: In-vitro TBK1 kinase assay ([γ33]ATP filter-plate). The class given is biochemical. In short, it runs like this:
as §1

The mark [1] stands for this setting: text bins, read-out: IC50 for inhibition of the kinase activity of IKKε.
[2] abbreviates: text bins, read-out: IC50 for inhibition of the kinase activity of TBK1.

`N#Cc1cc(-c2ccnc(Nc3ccc(N4CCOCC4)cc3)n2)ccc1OC1CCN(CCO)CC1` [Example 49, 2-{[1-(2-Hydroxyethyl)piperidin-4-yl]oxy}-5-(2-{[4-(morpholin-4-yl)phenyl]amino}pyrimidin-4-yl)benzonitrile]: the IC50 on IKKε (setting [1]) was 5 to 50 nM; at TBK1 (setting [2]) it was under 10 nM.

On to `N#Cc1cc(-c2ccnc(Nc3ccc(N4CCOCC4)c(C4CC4)c3)n2)ccc1OC1CCOCC1` [compound 329, 5-(2-{[3-cyclopropyl-4-(morpholin-4-yl)phenyl]amino}pyrimidin-4-yl)-2-(tetrahydro-2H-pyran-4-yloxy)benzonitrile], for which the IC50 at IKKε (setting [1]) is under 5 nM; at TBK1 (setting [2]) it was under 10 nM.

`COc1ccc(-c2ccnc(Nc3ccc(S(=O)(=O)NCCO)c(OC)c3)n2)cc1C#N` [Example 281, 4-{[4-(3-Cyano-4-methoxyphenyl)pyrimidin-2-yl]amino}-N-(2-hydroxyethyl)-2-methoxybenzene-sulfonamide]: the IC50 was in the range of 5 to 50 nM at IKKε (setting [1]) and 10 to 100 nM at TBK1 (setting [2]).

As for `COc1cc(Nc2nccc(-c3cccc(C#N)c3)n2)cc(OC)c1` [compound 347, 3-{2-[(3,5-Dimethoxyphenyl)amino]pyrimidin-4-yl}benzonitrile], the IC50 on IKKε (setting [1]) lay in the range of 50 to 500 nM; on TBK1 (setting [2]), 100 to 500 nM.

On to `N#Cc1cc(-c2ccnc(Nc3ccc(N4CCOCC4)cc3)n2)ccc1NC(=O)C1C[C@@H]1F` (stereo partly drawn) [Example 216, (2S)-N-[2-cyano-4-(2-{[4-(morpholin-4-yl)phenyl]amino}pyrimidin-4-yl)phenyl]-2-fluorocyclopropane-carboxamide], for which the values for the IC50 on IKKε (setting [1]) and on TBK1 (setting [2]) were under 5 nM and under 10 nM, respectively.

On to `C[C@H](O)C(=O)N1CCC(Oc2ccc(-c3ccnc(Nc4ccc(C(=O)N(C)CCN(C)C)cc4)n3)cc2C#N)CC1` [compound 331, 4-({4-[3-cyano-4-({1-[(2S)-2-hydroxypropanoyl]piperidin-4-yl}oxy)phenyl]pyrimidin-2-yl}amino)-N-[2-(dimethylamino)ethyl]-N-methylbenzamide], for which the IC50 was under 5 nM on IKKε (setting [1]) and under 10 nM on TBK1 (setting [2]).

Turning to `COc1ccc(Nc2nccc(-c3ccc(NC(=O)C(C)C)c(C#N)c3)n2)cc1OCCCN1CCOCC1` [compound 433, N-{2-cyano-4-[2-({4-methoxy-3-[3-(morpholin-4-yl)propoxy]phenyl}amino)pyrimidin-4-yl]phenyl}-2-methylpropanamide], the IC50 on IKKε (setting [1]) was 5 to 50 nM; on TBK1 (setting [2]), under 10 nM.

For the molecule `N#Cc1cc(-c2ccnc(Nc3ccc(CNC(=O)c4cnc(N)s4)cc3)n2)ccc1OC1CCOCC1` [compound 490, 2-amino-N-[4-({4-[3-cyano-4-(tetrahydro-2H-pyran-4-yloxy)phenyl]pyrimidin-2-yl}amino)benzyl]-1,3-thiazole-5-carboxamide], the IC50 is 1.4 nM on IKKε (Table 3, read-out: IKKε IC50); under 5 nM at IKKε (setting [1]); 0.3 nM on TBK1 (Table 3, read-out: TBK1 IC50); under 10 nM at TBK1 (setting [2]).

In the case of `N#Cc1cc(-c2ccnc(Nc3ccc(N4CCOCC4)cc3)n2)ccc1O[C@@H]1CCNC1` [compound 470, 5-(2-{[4-(morpholin-4-yl)phenyl]amino}pyrimidin-4-yl)-2-[(3R)-pyrrolidin-3-yloxy]benzonitrile], the values for the IC50 at IKKε (setting [1]) and on TBK1 (setting [2]) were 5 to 50 nM and under 10 nM, respectively.

For `CNCCCNS(=O)(=O)c1ccc(Nc2nccc(-c3ccc(OC4CCOCC4)c(C#N)c3)n2)cc1OC` [compound 396], the figures for the 50% inhibitory concentration (IC50) on IKKε (setting [1]) and on TBK1 (setting [2]) were under 5 nM and under 10 nM, respectively.

As for `COC(=O)c1ccc(Nc2nccc(-c3ccc(OC4CCN(C(=O)[C@H](C)O)CC4)c(C#N)c3)n2)cc1` [compound 342, methyl 4-({4-[3-cyano-4-({1-[(2S)-2-hydroxypropanoyl]piperidin-4-yl}oxy)phenyl]pyrimidin-2-yl}amino)benzoate], the IC50 is 5 to 50 nM at IKKε (setting [1]) and under 10 nM on TBK1 (setting [2]).

Take `COc1ccc(-c2ccnc(Nc3cccc(NC(=O)N4CC[C@@H](O)C4)c3)n2)cc1C#N` [compound 372, (3R)-N-(3-{[4-(3-Cyano-4-methoxyphenyl)pyrimidin-2-yl]amino}phenyl)-3-hydroxypyrrolidine-1-carboxamide]: the IC50 on IKKε (setting [1]) was in the range of 5 to 50 nM; at TBK1 (setting [2]), 10 to 100 nM.

Consider `COC(=O)c1ccc(Nc2nccc(-c3ccc(OC4CCN(C(=O)[C@H](C)O)CC4)c(C#N)c3)n2)cc1OC` [compound 324, methyl 4-({4-[3-cyano-4-({1-[(2S)-2-hydroxypropanoyl]piperidin-4-yl}oxy)phenyl]pyrimidin-2-yl}amino)-2-methoxybenzoate], for which the values for the IC50 on IKKε (setting [1]) and on TBK1 (setting [2]) were 5 to 50 nM and 10 to 100 nM, respectively.

With `COc1cc(Nc2nccc(-c3ccc(OC4CCOCC4)c(C#N)c3)n2)ccc1OCCOCCNS(=O)(=O)N(C)C` [Example 26, N′-(2-{2-[4-({4-[3-cyano-4-(tetrahydro-2H-pyran-4-yloxy)phenyl]pyrimidin-2-yl}amino)-2-methoxyphenoxy]ethoxy}ethyl)-N,N-dimethylsulfuric diamide], the figures for the IC50 on IKKε (setting [1]) and at TBK1 (setting [2]) were under 5 nM and under 10 nM, respectively.

As for `N#Cc1cc(-c2ccnc(Nc3ccc(N4CCOCC4)cc3)n2)ccc1OCCC1CCN(C(=O)CO)CC1` [compound 457, 2-{2-[1-(hydroxyacetyl)piperidin-4-yl]ethoxy}-5-(2-{[4-(morpholin-4-yl)phenyl]amino}pyrimidin-4-yl)benzonitrile], the IC50 lay within 5 to 50 nM on IKKε (setting [1]) and 10 to 100 nM at TBK1 (setting [2]).

Turning to `COc1cc(Nc2nccc(-c3ccc(OC4CCOCC4)c(C#N)c3)n2)ccc1S(=O)(=O)NCCCN(C)C` [Example 237, 4-({4-[3-cyano-4-(tetrahydro-2H-pyran-4-yloxy)phenyl]pyrimidin-2-yl}amino)-N-[3-(dimethylamino)propyl]-2-methoxybenzene-sulfonamide], the results for the IC50 at IKKε (setting [1]) and at TBK1 (setting [2]) were under 5 nM and under 10 nM, respectively.

On to `CN1CCN(S(=O)(=O)c2ccc(Nc3nccc(-c4ccc(OC5CCOCC5)c(C#N)c4)n3)cc2)CC1` [Example 284, 5-[2-({4-[(4-methylpiperazin-1-yl)sulfonyl]phenyl}amino)pyrimidin-4-yl]-2-(tetrahydro-2H-pyran-4-yloxy)benzonitrile], for which the results for the IC50 at IKKε (setting [1]) and on TBK1 (setting [2]) were 5 to 50 nM and under 10 nM, respectively.

Turning to `COc1cc(Nc2nccc(-c3ccc(OC)c(C#N)c3)n2)cc(OCCN2CCOCC2)c1` [Example 138, 2-Methoxy-5-[2-({3-methoxy-5-[2-(morpholin-4-yl)ethoxy]phenyl}amino)pyrimidin-4-yl]benzonitrile], the IC50 on IKKε (setting [1]) was 5 to 50 nM; on TBK1 (setting [2]), 10 to 100 nM.

Take `COc1cc(NC(=O)N2CCCC(O)C2)cc(Nc2nccc(-c3ccc(OC)c(C#N)c3)n2)c1` (centres unmarked) [compound 353, N-(3-{[4-(3-Cyano-4-methoxyphenyl)pyrimidin-2-yl]amino}-5-methoxyphenyl)-3-hydroxypiperidine-1-carboxamide]: the IC50 was 5 to 50 nM on IKKε (setting [1]) and 10 to 100 nM on TBK1 (setting [2]).

On to `CCC(C)C(=O)Nc1ccc(-c2ccnc(Nc3ccc(N4CCOCC4)cc3)n2)cc1C#N` (centres unmarked) [compound 417, N-[2-cyano-4-(2-{[4-(morpholin-4-yl)phenyl]amino}pyrimidin-4-yl)phenyl]-2-methylbutanamide], for which the figures for the IC50 on IKKε (setting [1]) and on TBK1 (setting [2]) were 5 to 50 nM and under 10 nM, respectively.

In the case of `CS(=O)(=O)NCCOc1ccc(-c2ccnc(Nc3ccc(N4CCOCC4)cc3)n2)cc1C#N` [Example 177, N-{2-[2-cyano-4-(2-{[4-(morpholin-4-yl)phenyl]amino}pyrimidin-4-yl)phenoxy]ethyl} methanesulfonamide], the IC50 at IKKε (setting [1]) was 5 to 50 nM; on TBK1 (setting [2]), 10 to 100 nM.
